23 molecules from PubChem BioAssay (NCI) can be followed below.

Test systems include OVCAR-8 ovarian; DMS 273 small cell lung; MOLT-4 leukemia; T-47D breast; MCF7 breast; BT-549 breast; MDA-MB-231 breast; DLD-1 colon; HS 578T breast; XF 498 CNS.
Holding throughout (assay): NCI anticancer screen, dose series, 48 h

Molecules are shown by their SMILES. Where “and” joins values, the source holds several entries; their conditions need not be identical. Identical values can stand only once.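 These data come from cells grown in 96-well plates and exposed to compound for 48 hours at five concentrations. GI50: concentration for 50% inhibition of growth. TGI is the concentration that stops growth completely.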

`C[C@H]1NC(=O)C2CCCCN2C(=O)CN(C)C(=O)CNC(=O)C2CCCCN2C(=O)[C@@H](NC(=O)c2nc3ccccc3cc2O)[C@@H](C)NC(=O)C2CCCCN2C(=O)CN(C)C(=O)CNC(=O)[C@@H]2CCCCN2C(=O)C1NC(=O)c1nc2ccccc2cc1O` (stereo partly drawn): the TGI in the assay with OVCAR-8 ovarian was over 100 µM; in the assay with DMS 273 small cell lung, 1.07 µM; in the assay on MOLT-4 leukemia, 7.03 µM.
As for `O=C(c1ccc(Cl)cc1)c1cnc(Nc2ccccc2Cl)s1`, the TGI in the assay with T-47D breast is 47.9 µM; in the assay with OVCAR-8 ovarian, over 71.1 µM; with DMS 273 small cell lung, 42.9 µM; in the assay with MCF7 breast, 86.7 µM; with BT-549 breast it was 51.2 µM; with MDA-MB-231 breast, over 100 µM. In addition, the TGI in the assay on MOLT-4 leukemia was over 100 µM; with DLD-1 colon, over 100 µM; in the assay on HS 578T breast it was 68.8 µM.
In the case of `CCOC(=O)C1(c2ccccc2)CCC(=O)CC1`, the TGI in the assay on OVCAR-8 ovarian, in the assay on DMS 273 small cell lung, with MOLT-4 leukemia and with DLD-1 colon was over 100 µM each time.
Turning to `COc1ccc(-c2cc(-c3ccccc3)c(C#N)c(=O)n2C2OC(CO)C(O)C(O)C2O)cc1` (stereo not drawn), the TGI in the assay on OVCAR-8 ovarian, with DMS 273 small cell lung, with MOLT-4 leukemia and in the assay on DLD-1 colon was over 100 µM in each case.
On to `COC(=O)[C@]1(C)CCCC2(C)C1CC[C@H]1C=C(C)[C@H]3CCC12C3` (stereo partly drawn), for which the TGI in the assay on OVCAR-8 ovarian, in the assay on XF 498 CNS, with MOLT-4 leukemia and in the assay on DLD-1 colon was over 100 µM each time.
Turning to `COc1ccc(/C(=N\NC(=O)C(N)=O)C(c2ccc(OC)cc2)C2(O)C(=O)Nc3c(Cl)cccc32)cc1` (stereo not drawn), the TGI in the assay with OVCAR-8 ovarian, in the assay with XF 498 CNS, with MOLT-4 leukemia and with DLD-1 colon was over 100 µM in each case.
Regarding `COc1ccc(NC(=O)/C(N=O)=C(/C)O)cc1`, the TGI in the assay on OVCAR-8 ovarian, in the assay on DMS 273 small cell lung, with MOLT-4 leukemia and in the assay with DLD-1 colon was over 100 µM throughout.
In the case of `O=C(NC(=O)c1cn(CCNCCO)c(=O)[nH]c1=O)OCc1ccccc1`, the TGI with OVCAR-8 ovarian, with MOLT-4 leukemia and in the assay on DLD-1 colon was over 100 µM throughout.
On to `COc1ccc(-c2oc(=O)ccc2-c2cc(OC)c(OC)c(OC)c2)cc1F`, for which the GI50 in the assay with T-47D breast is 23.9 µM; in the assay with OVCAR-8 ovarian, 24.1 µM; in the assay with MCF7 breast, 9.74 µM; in the assay with BT-549 breast, 19.7 µM; in the assay on MDA-MB-231 breast, 16 µM; with MOLT-4 leukemia, 22.4 µM. Also, the GI50 in the assay on HS 578T breast is 23.9 µM. The TGI was over 100 µM in the assay with T-47D breast; over 100 µM in the assay with OVCAR-8 ovarian; over 100 µM in the assay on MCF7 breast; 88.4 µM in the assay on BT-549 breast; over 100 µM in the assay on MDA-MB-231 breast; over 100 µM in the assay with MOLT-4 leukemia. The molecule further registered a TGI with HS 578T breast of over 100 µM.
`O=C(c1ccc(F)c(F)c1Nc1ccc(I)cc1F)N1CC(O)([C@@H]2CCCCN2)C1`: the GI50 in the assay with T-47D breast was 9.05 µM and > 10 µM; in the assay on OVCAR-8 ovarian, 10.5 µM and > 10 µM; with MCF7 breast it was 6.56 µM and > 10 µM; in the assay on BT-549 breast, 7.52 µM and > 6.99 µM; in the assay with MDA-MB-231 breast, < 0.0254 µM and 0.0955 µM; in the assay with MOLT-4 leukemia, 4.62 µM and 5.26 µM. Also, in the assay with HS 578T breast, the GI50 is 5.05 µM and > 6.42 µM. Besides, the TGI is 23.1 µM and > 10 µM in the assay with T-47D breast; 24.5 µM and > 10 µM in the assay on OVCAR-8 ovarian; 20.1 µM and > 10 µM in the assay with MCF7 breast; 22 µM and > 10 µM in the assay with BT-549 breast; 4.18 µM and > 9.06 µM with MDA-MB-231 breast; 18.8 µM and > 10 µM in the assay with MOLT-4 leukemia. Moreover, in the assay with HS 578T breast, the TGI was 29.3 µM and > 10 µM.
Turning to `Cc1nc2ccccc2nc1-c1ccc(N=[N+]([O-])c2ccc(-c3nc4ccccc4nc3C)cc2)cc1`, the TGI is over 100 µM in the assay with T-47D breast; over 100 µM with OVCAR-8 ovarian; over 100 µM in the assay on MCF7 breast; over 100 µM in the assay on BT-549 breast; over 80.2 µM in the assay with MDA-MB-231 breast; over 100 µM in the assay on MOLT-4 leukemia. The TGI in the assay on HS 578T breast is over 95.9 µM.
`O=C1c2ccccc2C2(O)c3cc4ccccc4cc3OC12O` (stereo not drawn): the TGI in the assay with OVCAR-8 ovarian, with DMS 273 small cell lung, in the assay with MOLT-4 leukemia and in the assay on DLD-1 colon was over 100 µM in each case.
Regarding `O=C(N/N=C1/C(=O)N(c2ccc(Cl)cc2Cl)C(=O)C(=O)C1c1nc2ccccc2o1)c1ccccc1O` (stereo not drawn), the TGI in the assay with OVCAR-8 ovarian is over 100 µM; in the assay with XF 498 CNS, 75.2 µM; with MOLT-4 leukemia, over 100 µM; in the assay with DLD-1 colon, over 100 µM.
As to `Nc1nc(N)c(N=Nc2ccc([As](=O)(O)O)cc2)c(=O)[nH]1`, the TGI in the assay with T-47D breast, in the assay with OVCAR-8 ovarian, with MCF7 breast, in the assay on BT-549 breast, with MDA-MB-231 breast and in the assay on MOLT-4 leukemia was over 100 µM in each case. The same molecule gave a TGI with HS 578T breast of over 100 µM.
As to `COc1cc(CNCCCN2C(=O)c3ccc4c5c(ccc(c35)C2=O)C(=O)N(CCCNCc2cc(OC)c(OC)c(OC)c2)C4=O)cc(OC)c1OC`, the GI50 in the assay on T-47D breast is 0.38 µM; with OVCAR-8 ovarian it was 0.272 µM; in the assay with MCF7 breast, 0.242 µM; in the assay on BT-549 breast, 0.852 µM; with MDA-MB-231 breast it was 0.252 µM; with MOLT-4 leukemia, 0.147 µM. Further, in the assay with HS 578T breast, the GI50 is 1.2 µM. The TGI with T-47D breast is 1.12 µM; in the assay on OVCAR-8 ovarian, 0.959 µM; in the assay with MCF7 breast, 0.643 µM; with BT-549 breast, 1.77 µM; with MDA-MB-231 breast it was 2.27 µM; in the assay on MOLT-4 leukemia, 0.6 µM. The molecule further registered a TGI in the assay with HS 578T breast of 3.76 µM.
As for `COc1cccc2c1C(=O)c1c(O)c3c(c(O)c1C2=O)CC(O)(/C(C)=N/NC(=O)CCC(=O)N/N=C(\C)C1(O)Cc2c(O)c4c(c(O)c2C(OC2CC(N)C(O)C(C)O2)C1)C(=O)c1c(OC)cccc1C4=O)CC3OC1CC(N)C(O)C(C)O1` (stereo not drawn), the GI50 in the assay on T-47D breast was 0.172 µM; with OVCAR-8 ovarian, 0.306 µM; with MCF7 breast, 0.0676 µM; with BT-549 breast, 0.671 µM; in the assay with MDA-MB-231 breast, 1.17 µM; in the assay with MOLT-4 leukemia it was 0.142 µM. Besides, the GI50 in the assay on HS 578T breast was 0.261 µM. The TGI with T-47D breast was 1.68 µM; in the assay on OVCAR-8 ovarian, over 50 µM; with MCF7 breast it was 7.41 µM; in the assay on BT-549 breast, 2.27 µM; in the assay with MDA-MB-231 breast it was over 50 µM; with HS 578T breast, 2.3 µM.
Take `CCOc1ccc(N2C(=O)/C(=C/c3ccc(N(CCC#N)CCC#N)cc3)N=C2c2cc([N+](=O)[O-])ccc2Cl)cc1`: the TGI with OVCAR-8 ovarian was over 100 µM; in the assay on DMS 273 small cell lung, 40.8 µM; in the assay with MOLT-4 leukemia, 13.8 µM; with DLD-1 colon it was over 100 µM.
Regarding `COc1c(OC)c(OC)c(C(=O)/C=C/c2ccccc2)c(OC)c1OC`, the TGI in the assay on T-47D breast was determined as 23.7 µM; with OVCAR-8 ovarian, 34 µM; in the assay with MCF7 breast, 24.1 µM; in the assay with BT-549 breast it was 18.1 µM; in the assay on MDA-MB-231 breast it was 35.6 µM; with MOLT-4 leukemia it was 36.3 µM. Also, in the assay with HS 578T breast, the TGI is over 100 µM.
On to `O=C(CC(O)(C(F)(F)F)C(F)(F)F)c1cc(CC(=O)C(O)(C(F)(F)F)C(F)(F)F)cc(CC(=O)C(O)(C(F)(F)F)C(F)(F)F)c1`, for which the TGI is 4.26 µM with T-47D breast; 6.91 µM in the assay on OVCAR-8 ovarian; 9.82 µM in the assay with MCF7 breast; 4.93 µM with BT-549 breast; 3.3 µM with MDA-MB-231 breast; over 10 µM with MOLT-4 leukemia. The TGI in the assay on HS 578T breast was over 10 µM.
Take `C=CC(=O)N1CCC(C2CCNc3c(C(N)=O)c(-c4ccc(Oc5ccccc5)cc4)nn32)CC1` (stereo not drawn): the GI50 in the assay with T-47D breast was 1.4 µM; in the assay with OVCAR-8 ovarian it was 16.9 µM; in the assay with MCF7 breast, 12.3 µM; with BT-549 breast, 12.9 µM; with MDA-MB-231 breast it was 19.2 µM; with MOLT-4 leukemia, 5.36 µM. The GI50 with HS 578T breast is 20.6 µM. For the same molecule, the TGI turned out to be 28.4 µM in the assay with T-47D breast; 59.2 µM with OVCAR-8 ovarian; 59.4 µM in the assay on MCF7 breast; 52.4 µM with BT-549 breast; 92.5 µM in the assay on MDA-MB-231 breast; 31 µM in the assay with MOLT-4 leukemia. Besides, in the assay on HS 578T breast, the TGI worked out at 78.4 µM.
`CCC1C2C=CC(CC2)N1S(=O)(=O)c1ccc(C)cc1` (stereo not drawn): the results for the TGI with DMS 273 small cell lung and with MOLT-4 leukemia were 60.2 µM and over 100 µM, respectively.
With `Ic1ccc(-n2nnnc2-c2cnoc2-c2ccccc2)cc1`, the GI50 in the assay on T-47D breast is 48.8 µM; with OVCAR-8 ovarian it was over 50.4 µM; with MCF7 breast it was 35.2 µM; in the assay on MDA-MB-231 breast, over 51.9 µM; in the assay with MOLT-4 leukemia it was 70 µM; in the assay on HS 578T breast it was 42.7 µM. The TGI was over 100 µM in the assay with T-47D breast; over 77 µM with OVCAR-8 ovarian; over 100 µM in the assay with MCF7 breast; 9.49 µM in the assay on BT-549 breast; over 91.2 µM in the assay on MDA-MB-231 breast; over 100 µM with MOLT-4 leukemia. The molecule also returned a TGI with HS 578T breast of 98.4 µM.
As for `CCOC(=O)NC(=O)c1cn(CCOC(=O)NCCCCCCNC(=O)OCCn2cc(C(=O)NC(=O)OCC)c(=O)[nH]c2=O)c(=O)[nH]c1=O`, the TGI with OVCAR-8 ovarian, in the assay with DMS 273 small cell lung, in the assay with MOLT-4 leukemia and in the assay with DLD-1 colon was over 100 µM in each case.
